According to ChEMBL document CHEMBL1121912, “Purine acyclic nucleosides. Nitrogen isosteres of 9-[(2-hydroxyethoxy)methyl]guanine as candidate antivirals” (J Med Chem, 1981):
Calls of active or inactive are those of the source. The rule behind the calls is not given here.

Experiments:
Type in all cases: functional, organism-based
Human alphaherpesvirus 1 [1] = assay: The compound was tested for plaque inhibition in HSV-1 in cell culture; - = in active at 50 ug per disk
Human alphaherpesvirus 1 [2] = assay: The compound was tested for plaque inhibition in HSV-1 in cell culture; +=active at 50 ug per disk
Human alphaherpesvirus 1 [3] = assay: The compound was tested for plaque inhibition in HSV-1 in cell culture, activity is determined by plaque reduction assay

CC(=O)NCCOCn1cnc2c(O)nc(N)nc21
Plaque inhibition result (Human alphaherpesvirus 1 [1]): inactive

Nc1nc2c(ncn2COCCO)c(=O)[nH]1 [ACYCLOVIR]
Plaque inhibition result (Human alphaherpesvirus 1 [2]): active at 50 ug per disk | IC50 (Human alphaherpesvirus 1 [3]): 0.1 µM

NCCOCCOCn1cnc2c(O)nc(N)nc21
Plaque inhibition result (Human alphaherpesvirus 1 [1]): inactive

NCCOCn1cnc2c(N)nc(N)nc21
Plaque inhibition result (Human alphaherpesvirus 1 [1]): inactive

NCCOCn1cnc2c(O)nc(N)nc21
Plaque inhibition result (Human alphaherpesvirus 1 [2]): active at 50 ug per disk | IC50 (Human alphaherpesvirus 1 [3]): 8 µM

Nc1nc(O)c2ncn(COCCNCCO)c2n1
Plaque inhibition result (Human alphaherpesvirus 1 [1]): inactive
